According to patent US6866857B1, “Oxalipatinum preparation packaging” (Debiopharm S.A., priority 1998, dated 2005):
Entries after “also recorded” stand apart in the source; their conditions may differ.

Key:
[1] = tolerance of aqueous oxaliplatinum preparations to contact with PVC-based materials; assay type: physicochemical; details: pharmaceutical preparations in aqueous solution
[2] = accelerated stability study of liquid oxaliplatinum solution packed in flexible bag; assay type: physicochemical; details: for Appearance of the solution / pH / Impurities by HPLC (%) / L-OHP titre/standard (%) / Oxalic acid titre (%): 2 mg/ml solution, 40° C.
[3] = 6 Months, HPLC, PA 11/PP bag, 75% RH
[4] = 12 Months, PA 11/PP bag, 75% RH
[5] = 12 Months, HPLC, PA 11/PP bag, 75% RH
[6] = Week 0, HPLC, PA 11/PP bag, 75% RH
[7] = Week 1, HPLC, PA 11/PP bag, 75% RH
[8] = Week 2, HPLC, PA 11/PP bag, 75% RH
[9] = Week 3, HPLC, PA 11/PP bag, 75% RH
[10] = Week 4, HPLC, PA 11/PP bag, 75% RH
[11] = Week 5, HPLC, PA 11/PP bag, 75% RH
[12] = Week 12, HPLC, PA 11/PP bag, 75% RH

## O=C1[O][Pt]2([NH][C@@H]3CCCC[C@H]3[NH]2)[O]C1=O (relative stereo) [oxaliplatinum, cis-oxalato(trans-1-1-diaminocyclohexane) platinum(II)]
[1]
  tolerance of contact with PVC-based materials: cannot tolerate being in contact with PVC-based materials
[2]; 6 Months, PA 11/PP bag, 75% RH
  Appearance of the solution: Clear,
  pH: 5.20
[2]; [3]
  Impurities by HPLC (%): 0.5%
  L-OHP titre/standard (%): 98.9%
  Oxalic acid titre (%): <0.1%
[2]; [4]
  Appearance of the solution: Clear,
  pH: 5.30
[2]; [5]
  Impurities by HPLC (%): 0.6%
  L-OHP titre/standard (%): 98.5%
  Oxalic acid titre (%): <0.1%
[2]; HPLC
  maximum percentage of apparent impurities: ≤ 2%
[2]; Week 0, 100 ml PA 11/PP bag, 75% relative humidity
  Appearance of the solution: Clear,
[2]; Week 0, PA 11/PP bag, 75% RH
  pH: 5.56
[2]; [6]
  Impurities by HPLC (%): 0.10%
  L-OHP titre/standard (%): 99.7%
  Oxalic acid titre (%): <0.1%
[2]; Week 1, PA 11/PP bag, 75% RH
  Appearance of the solution: Clear,
  pH: 5.10
[2]; [7]
  Impurities by HPLC (%): 0.60%
  L-OHP titre/standard (%): 100.1%
  Oxalic acid titre (%): <0.1%
[2]; Week 2, PA 11/PP bag, 75% RH
  Appearance of the solution: Clear,
  pH: 5.24
[2]; [8]
  Impurities by HPLC (%): 0.50%
  L-OHP titre/standard (%): 100.0%
  Oxalic acid titre (%): <0.1%
[2]; Week 3, PA 11/PP bag, 75% RH
  Appearance of the solution: Clear,
  pH: 5.22
[2]; [9]
  Impurities by HPLC (%): 0.50%
  L-OHP titre/standard (%): 100.9%
  Oxalic acid titre (%): <0.1%
[2]; Week 4, PA 11/PP bag, 75% RH
  Appearance of the solution: Clear,
[2]; [10]
  Impurities by HPLC (%): 0.48%
  L-OHP titre/standard (%): 99.3%
  Oxalic acid titre (%): <0.1%
[2]; Week 5, PA 11/PP bag, 75% RH
  Appearance of the solution: Clear,
  pH: 5.23
[2]; [11]
  Impurities by HPLC (%): 0.45%
  L-OHP titre/standard (%): 97.7%
  Oxalic acid titre (%): <0.1%
[2]; Week 12, PA 11/PP bag, 75% RH
  Appearance of the solution: Clear,
  pH: 5.35
[2]; [12]
  Impurities by HPLC (%): 0.40%
  L-OHP titre/standard (%): 99.3%
  Oxalic acid titre (%): <0.1%
[2]; liquid solution in flexible bag
  period of stability of the liquid solution packed in a flexible bag: stable for a period extending to more than three months, and even to more than six months; also recorded: stable for at least one year
[2]; observed for twelve months, flexible bag
  appearance of the solution over the whole period: clarity and the absence of coloration
[2]; same conditions, FIG. 6 vs FIG. 7
  stability compared with solution packed in a glass bottle: stability analogous
